Read-outs that look alike come from different tables or passages of the source.
Tested on: Lox-IMVI melanoma cell line
Test: Lox-IMVI anti-proliferative assay (growth inhibition, Cell Titer-Glo)
Type: cell-based, human
Details: Homo sapiens
Summary of the method: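 IC50 values reflect the concentration giving 50% of DMSO-control luminescence after 72 h of treatment, fitted with a four-parameter logistic model. Cells were cultured in RPMI + 10% FBS with compound from 0.5 nM to 10 μM.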

[1] = IC50 activity level in the cell-based Lox-IMVI anti-proliferative assay, read-out: Activity
[2] = Lox-IMVI anti-proliferative assay, IC50 activity level, read-out: Activity
[3] = Lox-IMVI melanoma cell line, anti-proliferative assay, read-out: Activity (IC50 activity level)

| Structure (SMILES) | IC50 [1] [nM] | IC50 [2] [nM] | further results |
| --- | --- | --- | --- |
| NC(=O)[C@H]1CC[C@@H](n2c(Nc3c(F)cc(Cl)cc3F)nc3cnc(NC4CCC4)nc32)CC1 [Example 129, (1s,4s)-4-(8-(4-chloro-2,6-difluorophenylamino)-2-(cyclobutylamino)-9H-purin-9-yl)cyclohexanecarboxamide] | > 1000 |  |  |
| CC[C@@H](CO)Nc1ncc2nc(Nc3c(F)ccc(F)c3F)n([C@H]3CC[C@@H](C(N)=O)CC3)c2n1 [Example 148, (1R,4s)-4-(2-((S)-1-hydroxybutan-2-ylamino)-8-(2,3,6-trifluorophenylamino)-9H-purin-9-yl)cyclohexanecarboxamide] | > 1000 |  |  |
| CC[C@@H](CO)Nc1ncc2nc(Nc3ccc(F)c(F)c3F)n([C@H]3CC[C@@H](C(N)=O)CC3)c2n1 [Example 151, (1R,4s)-4-(2-((S)-1-hydroxybutan-2-ylamino)-8-(2,3,4-trifluorophenylamino)-9H-purin-9-yl)cyclohexanecarboxamide] | > 1000 |  |  |
| NC(=O)[C@H]1CC[C@@H](n2c(Nc3c(F)cc(Cl)cc3F)nc3cnc(NC4COCC4O)nc32)CC1 (stereo partly drawn) [Example 184, (1s,4s)-4-(8-(4-chloro-2,6-difluorophenylamino)-2-(4-hydroxytetrahydrofuran-3-ylamino)-9H-purin-9-yl)cyclohexanecarboxamide] | > 1000 |  |  |
| NC(=O)[C@H]1CC[C@@H](n2c(Nc3c(F)cc(F)cc3Cl)nc3cnc(N[C@H]4COC[C@@H]4O)nc32)CC1 [Example 312, (1R,4s)-4-(8-(2-chloro-4,6-difluorophenylamino)-2-((3S,4R)-4-hydroxytetrahydrofuran-3-ylamino)-9H-purin-9-yl)cyclohexanecarboxamide] | > 1000 |  |  |
| NC(=O)[C@H]1CC[C@@H](n2c(Nc3c(Cl)cc(F)cc3Cl)nc3cnc(N[C@@H]4CCCN(c5ccccc5)C4)nc32)CC1 [Example 749, (1S,4s)-4-(8-(2,6-dichloro-4-fluorophenylamino)-2-((R)-1-phenylpiperidin-3-ylamino)-9H-purin-9-yl)cyclohexanecarboxamide] |  |  | IC50 [3]: > 1000 nM |
| NC(=O)[C@H]1CC[C@@H](n2c(Nc3c(F)cc(F)cc3Cl)nc3cnc(NC4CCC4)nc32)CC1 [Example 117, (1s,4s)-4-(8-(2-chloro-4,6-difluorophenylamino)-2-(cyclobutylamino)-9H-purin-9-yl)cyclohexanecarboxamide] | 500 to 1000 |  |  |
| C[C@]1(C(N)=O)CC[C@@H](n2c(Nc3c(F)cc(C#N)cc3Cl)nc3cnc(NC4CCC4)nc32)CC1 [Example 600, (1s,4s)-4-(8-(2-chloro-4-cyano-6-fluorophenylamino)-2-(cyclobutylamino)-9H-purin-9-yl)-1-methylcyclohexanecarboxamide] |  |  | IC50 [3]: < 250 nM |
| Cc1ccc(S(=O)(=O)N2CCC[C@@H](Nc3ncc4nc(Nc5c(F)cc(C#N)cc5F)n([C@H]5CC[C@@H](C(N)=O)CC5)c4n3)C2)cc1 [Example 790, (1S,4s)-4-(8-(4-cyano-2,6-difluorophenylamino)-2-((R)-1-tosylpiperidin-3-ylamino)-9H-purin-9-yl)cyclohexanecarboxamide] |  |  | IC50 [3]: > 1000 nM |
| NC(=O)[C@H]1CC[C@@H](n2c(Nc3c(Cl)cccc3Cl)nc3cnc(N[C@H]4C[C@H](O)C4)nc32)CC1 [Example 280, (1s,4s)-4-(8-(2,6-dichlorophenylamino)-2-((1r,3r)-3-hydroxycyclobutylamino)-9H-purin-9-yl)cyclohexanecarboxamide] | > 1000 |  |  |
| NC(=O)[C@H]1CC[C@@H](n2c(Nc3c(F)cccc3Cl)nc3cnc(NC4COC4)nc32)CC1 [Example 57, (1s,4s)-4-(8-(2-chloro-6-fluorophenylamino)-2-(oxetan-3-ylamino)-9H-purin-9-yl)cyclohexanecarboxamide] | > 1000 |  |  |
| NC(=O)[C@H]1CC[C@@H](n2c(Nc3c(F)cc(F)cc3Cl)nc3cnc(N[C@@H]4CCC[C@H]4O)nc32)CC1 [Example 252, (1S,4s)-4-(8-(2-chloro-4,6-difluorophenylamino)-2-((1R,2R)-2-hydroxycyclopentylamino)-9H-purin-9-yl)cyclohexanecarboxamide] | > 1000 |  |  |

Continued, in another order:

| IC50 [1] [nM] | IC50 [2] [nM] | Structure (SMILES) | further results |
| --- | --- | --- | --- |
| > 1000 |  | NC(=O)[C@H]1CC[C@@H](n2c(Nc3c(F)cc(Cl)cc3Cl)nc3cnc(N[C@H]4C[C@@H](O)C4)nc32)CC1 [Example 324, (1s,4s)-4-(8-(2,4-dichloro-6-fluorophenylamino)-2-((1s,3s)-3-hydroxycyclobutylamino)-9H-purin-9-yl)cyclohexanecarboxamide] |  |
| > 1000 |  | CCC(C)Nc1ncc2nc(Nc3c(F)ccc(Cl)c3F)n([C@H]3CC[C@@H](C(N)=O)CC3)c2n1 (stereo partly drawn) [Example 340, (1R,4s)-4-(2-(sec-butylamino)-8-(3-chloro-2,6-difluorophenylamino)-9H-purin-9-yl)cyclohexanecarboxamide] |  |
|  | 250 to 500 | N#Cc1cc(F)c(Nc2nc3cnc(N[C@@H]4CCOC4)nc3n2[C@H]2CC[C@@H](C(N)=O)CC2)c(Cl)c1 [Example 520, (1S,4s)-4-(8-(2-chloro-4-cyano-6-fluorophenylamino)-2-((R)-tetrahydrofuran-3-ylamino)-9H-purin-9-yl)cyclohexanecarboxamide] |  |
|  | > 1000 | NC(=O)[C@H]1CC[C@@H](n2c(Nc3c(F)cccc3Cl)nc3cnc(N[C@@H]4CCCC[C@H](O)C4)nc32)CC1 [Example 436, (1S,4s)-4-(8-(2-chloro-6-fluorophenylamino)-2-((1R,3S)-3-hydroxycycloheptylamino)-9H-purin-9-yl)cyclohexanecarboxamide] |  |
|  | 250 to 500 | NC(=O)[C@H]1CC[C@@H](n2c(Nc3c(F)cc(Cl)cc3F)nc3cnc(N[C@@H]4CCO[C@H](CO)C4)nc32)CC1 [Example 445, (1S,4s)-4-(8-(4-chloro-2,6-difluorophenylamino)-2-((2S,4R)-2-(hydroxymethyl)tetrahydro-2H-pyran-4-ylamino)-9H-purin-9-yl)cyclohexanecarboxamide] |  |
|  | > 1000 | NC(=O)[C@H]1CC[C@@H](n2c(Nc3c(Cl)cc(C(F)(F)F)cc3Cl)nc3cnc(N[C@@H]4CCOC4)nc32)CC1 [Example 523, (1S,4s)-4-(8-(2,6-dichloro-4-(trifluoromethyl)phenylamino)-2-((R)-tetrahydrofuran-3-ylamino)-9H-purin-9-yl)cyclohexanecarboxamide] |  |
|  | > 1000 | NC(=O)[C@H]1CC[C@@H](n2c(Nc3c(F)cc(Cl)cc3Cl)nc3cnc(N[C@H](CO)C(F)(F)F)nc32)CC1 [Example 471, (1S,4s)-4-(8-(2,4-dichloro-6-fluorophenylamino)-2-((R)-1,1,1-trifluoro-3-hydroxypropan-2-ylamino)-9H-purin-9-yl)cyclohexanecarboxamide] |  |
|  | > 1000 | NC(=O)[C@H]1CC[C@@H](n2c(Nc3c(Cl)cccc3Cl)nc3cnc(N[C@@H]4CCCC[C@H](O)C4)nc32)CC1 [Example 435, (1S,4s)-4-(8-(2,6-dichlorophenylamino)-2-((1R,3S)-3-hydroxycycloheptylamino)-9H-purin-9-yl)cyclohexanecarboxamide] |  |
|  | 250 to 500 | C[C@@H]1COCC[C@@H]1Nc1ncc2nc(Nc3c(F)cc(Cl)cc3Cl)n([C@H]3CC[C@@H](C(N)=O)CC3)c2n1 [Example 506, (1R,4s)-4-(8-(2,4-dichloro-6-fluorophenylamino)-2-((3S,4S)-3-methyltetrahydro-2H-pyran-4-ylamino)-9H-purin-9-yl)cyclohexanecarboxamide] |  |

Reference: patent US11590139B2, “Substituted aminopurine compounds, compositions thereof, and methods of treatment therewith” (Signal Pharmaceuticals, LLC, priority 2014, dated 2023)
